Experimental data from US9409952B2, “Peptide-compound cyclization method” (Chugai Seiyaku Kabushiki Kaisha, priority 2011, dated 2016).
Starred links: 1 amine or outer side, 2 acyl side, 3 side chain; linkers in the order of their positions; H or OH if unused. Positions of bridges follow the written chain, without caps; N, C: chain ends. Non-standard residues stand in square brackets, D forms with d. Residues, ends and D or L forms follow the SMILES beside them. *: point of attachment. Phe(4-(CH2)5CO) = O=C([C@H](Cc1ccc(CCCCCC(=O)[*:3])cc1)N[*:1])[*:2]; NMeF = CN[C@@H](Cc1ccccc1)C(=O)O; NMeI = CC[C@H](C)[C@H](NC)C(=O)O; NMeβAla = CN(CCC(=O)[*:2])[*:1]; NMeL = CN[C@@H](CC(C)C)C(=O)O; NMeV = CN[C@H](C(=O)O)C(C)C; NMeA = CN[C@@H](C)C(=O)O; Piperidide = C1CCN(*)CC1; dNMeA = CN[C@H](C)C(=O)O; Sar = CNCC(=O)O; tBu = CC(C)(C)*

Experiment: Metabolic stability in human hepatic microsome
Assay type: in vitro ADME
Settings: human, microsomes, pH 7.4, CL NADPH(+)

SMILES	microsomal CLint at 1 uM [µL/min/mg]
CC[C@H](C)[C@H](NC(=O)[C@H](Cc1ccccc1)N(C)C(=O)[C@@H]1CC(=O)N(C)[C@@H](C)C(=O)N[C@@H](Cc2ccccc2)C(=O)N(C)[C@@H](CC(C)C)C(=O)N(C)[C@@H](CC(C)C)C(=O)N[C@@H](Cc2ccccc2)C(=O)N(C)[C@@H](CC(C)C)C(=O)N[C@@H]([C@@H](C)CC)C(=O)N2CCC[C@H]2C(=O)N[C@@H]([C@@H](C)O)C(=O)N[C@@H](CC(C)C)C(=O)N1)C(=O)N1CCCCC1 [DP-962] ([NMeA]F[NMeL][NMeL]F[NMeL]IPTLD[NMeF]I-Piperidide; lactam N-11)	22

Same assay, conditions: microsomes, pH 7.4; human hepatic microsome, NADPH(+); read-out: CL NADPH(+)

SMILES	microsomal CLint at 1 uM [µL/min/mg]
CC[C@H](C)[C@H]1C(=O)N[C@@H](Cc2ccccc2)C(=O)N(C)[C@@H](Cc2ccccc2)C(=O)N[C@@H]([C@@H](C)O)C(=O)N2CCC[C@H]2C(=O)N[C@@H](CC(C)C)C(=O)N[C@H](C(=O)N2CCCCC2)Cc2ccc(cc2)CCCCCC(=O)N[C@@H](C(C)C)C(=O)N(C)CC(=O)N[C@@H](CC(C)C)C(=O)N(C)[C@@H](CC(C)C)C(=O)N[C@@H](C)C(=O)N1C [DP-895] (V[Sar]L[NMeL]A[NMeI]F[NMeF]TPL[Phe(4-(CH2)5CO)]-Piperidide; lactam N-12)	54
C=C1CCC(=O)N[C@@H](CC(C)C)C(=O)N[C@@H](Cc2ccccc2)C(=O)N[C@@H]([C@@H](C)O)C(=O)N[C@@H](CC(C)C)C(=O)N(C)[C@@H](C)C(=O)N[C@@H](Cc2ccccc2)C(=O)NCC(=O)N[C@@H](C(C)C)C(=O)N[C@@H](CC(C)C)C(=O)N[C@@H](C)C(=O)N(C)[C@@H](CC(C)C)C(=O)N[C@H](C(=O)N2CCCCC2)Cc2ccc1cc2 [DP-898]	21
C=C1CCC(=O)N[C@@H](C(C)C)C(=O)N(C)[C@@H](CC(C)C)C(=O)N(C)CC(=O)N(C)[C@@H](CC(C)C)C(=O)N(C)[C@@H]([C@@H](C)CC)C(=O)N[C@@H](C)C(=O)N(C)[C@@H](Cc2ccccc2)C(=O)N(C)[C@@H](Cc2ccccc2)C(=O)N[C@@H]([C@@H](C)O)C(=O)N(C)[C@@H](CC(C)C)C(=O)N2CCC[C@H]2C(=O)N[C@H](C(=O)N2CCCCC2)Cc2cccc1c2 [DP-899]	32
CC[C@H](C)[C@@H]1NC(=O)[C@H](Cc2ccccc2)N(C)C(=O)[C@H](CC(C)C)N(C)C(=O)[C@H](CC(C)C)NC(=O)[C@H](C)NC(=O)[C@H](C(C)C)N(C)C(=O)CNC(=O)CCCCCc2ccc(cc2)C[C@@H](C(=O)N2CCCCC2)NC(=O)[C@H](CC(C)C)N(C)C(=O)[C@H]([C@@H](C)O)NC(=O)[C@@H]2CCCN2C(=O)[C@H](Cc2ccccc2)NC1=O [DP-902] (G[NMeV]AL[NMeL][NMeF]IFPT[NMeL][Phe(4-(CH2)5CO)]-Piperidide; lactam N-12)	121
CC[C@H](C)[C@H](NC(=O)[C@H](CC(C)C)N(C)C(=O)[C@H](Cc1ccccc1)N(C)C(=O)[C@@H]1CC(=O)N(C)[C@@H](C)C(=O)N[C@@H](C(C)C)C(=O)N[C@@H](C)C(=O)N[C@@H](CC(C)C)C(=O)N(C)[C@@H](Cc2ccccc2)C(=O)N[C@@H](CC(C)C)C(=O)N[C@@H]([C@@H](C)O)C(=O)N1)C(=O)N1CCCCC1 [DP-932] ([NMeA]VAL[NMeF]LTD[NMeF][NMeL]I-Piperidide; lactam N-8)	108
CC[C@H](C)[C@H](NC(=O)[C@H](CC(C)C)NC(=O)[C@H](CC(C)C)N(C)C(=O)[C@@H]1CC(=O)N[C@H](C(C)C)C(=O)N[C@@H](CC(C)C)C(=O)N(C)[C@@H](CC(C)C)C(=O)N[C@@H]([C@@H](C)O)C(=O)N[C@@H](C(C)C)C(=O)N(C)[C@@H](CC(C)C)C(=O)N(C)[C@@H](Cc2ccccc2)C(=O)N1)C(=O)N1CCCCC1 [DP-933] ([dV]L[NMeL]TV[NMeL][NMeF]D[NMeL]LI-Piperidide; lactam N-8)	43
CC[C@H](C)[C@H](NC(=O)[C@H](CC(C)C)N(C)C(=O)[C@H](CC(C)C)NC(=O)[C@@H]1CC(=O)N[C@@H](C)C(=O)N(C)[C@@H](Cc2ccccc2)C(=O)N(C)[C@@H](CC(C)C)C(=O)N(C)[C@@H](CC(C)C)C(=O)N[C@@H](Cc2ccccc2)C(=O)N[C@@H]([C@@H](C)O)C(=O)N[C@@H](C(C)C)C(=O)N1)C(=O)N1CCCCC1 [DP-934] (A[NMeF][NMeL][NMeL]FTVDL[NMeL]I-Piperidide; lactam N-8)	143
CC[C@H](C)[C@H](NC(=O)[C@H](Cc1ccccc1)N(C)C(=O)[C@H](Cc1ccccc1)N(C)C(=O)[C@@H]1CC(=O)N(C)CCC(=O)N(C)[C@@H](CC(C)C)C(=O)N(C)[C@@H](Cc2ccccc2)C(=O)N[C@@H](CC(C)C)C(=O)N(C)[C@@H](CC(C)C)C(=O)N(C)[C@@H](CC(C)C)C(=O)N[C@@H]([C@@H](C)O)C(=O)N(C)[C@@H](C)C(=O)N1)C(=O)N1CCCCC1 [DP-960] ([NMeβAla][NMeL][NMeF]L[NMeL][NMeL]T[NMeA]D[NMeF][NMeF]I-Piperidide; lactam N-9)	36

Experiment: PAMPA (parallel artificial membrane permeability assay)
Assay type: in vitro ADME
Settings: PAMPA, pH 6.5
Method: 4 μL of a phospholipid-organic solvent solution composed of 10% (w/v) of egg lecithin, 0.5% (w/v) of cholesterol and dodecane (all purchased from Fluka) was added to a Millipore 96-well membrane filter (hydrophobic PVDF (polyvinylidene difluoride), pore size 0.45 microm) (purchased from Millipore Japan) to make an artificial phospholipid membrane.
A DMSO solution containing the compound at a concentration of 10 mM was added in a percentage of 0.5% (v/v) to a 50 mM MOPSO buffer, pH 6.5, containing 5.0% (w/v) of glycocholic acid, and 330 μL of the mixture was added to a 96-well plate made of Teflon (donor plate). The above artificial phospholipid membrane plate was attached onto the donor plate, and 280 μL of a solution obtained by adding DMSO in a percentage of 0.5% (v/v) to a 50 mM MOPSO buffer, pH 6.5, containing 5.0% (w/w) of glycocholic acid was added onto the artificial phospholipid membrane (acceptor plate). These plates were allowed to stand at 37° C. for 18 hours, after which the concentrations of the compound in the solutions in the donor plate and the acceptor plate were measured by LC/MS or LC/UV, and the membrane permeation rate of the compound (Pe) was calculated by the following formulas (1) and (2), where t is the testing time, A is the membrane filter area, VD is the amount of the donor solution, VA is the amount of the acceptor solution, CD,t is the concentration of the compound in the donor solution at the time t, and CA,t is the concentration of the compound in the acceptor solution at the time t.

SMILES	Papp at 18 hours, 50 µM [×10⁻⁶ cm/s]
CC[C@H](C)[C@H]1C(=O)N[C@H](C(=O)N2CCCCC2)CC(=O)N[C@@H](C)C(=O)N(C)[C@@H](C)C(=O)N(C)[C@@H](Cc2ccccc2)C(=O)N(C)[C@@H](CC(C)C)C(=O)N[C@@H]([C@@H](C)O)C(=O)N(C)CC(=O)N(C)[C@@H](CC(C)C)C(=O)N[C@@H](COC(C)(C)C)C(=O)N1C [DP-36] (A[NMeA][NMeF][NMeL]T[Sar][NMeL]S(tBu)[NMeI]D-Piperidide; lactam N-10)	27
CC[C@H](C)[C@H]1C(=O)N[C@H](C(=O)N2CCCCC2)CC(=O)N(C)CC(=O)N(C)[C@@H](CC(C)C)C(=O)N[C@@H](C)C(=O)N(C)[C@@H](CC(C)C)C(=O)N(C)[C@@H](Cc2ccccc2)C(=O)N(C)[C@@H](CC(C)C)C(=O)N(C)[C@@H](Cc2ccccc2)C(=O)N[C@@H]([C@@H](C)O)C(=O)N(C)[C@@H](C)C(=O)N1C [DP-70] ([Sar][NMeL]A[NMeL][NMeF][NMeL][NMeF]T[NMeA][NMeI]D-Piperidide; lactam N-11)	40
CC[C@H](C)[C@H]1C(=O)N[C@H](C(=O)N2CCCCC2)CC(=O)N[C@H](C)C(=O)N[C@@H]([C@@H](C)O)C(=O)N(C)[C@@H](C)C(=O)N(C)[C@@H](C(C)C)C(=O)N[C@@H](Cc2ccccc2)C(=O)N(C)CC(=O)N(C)[C@@H](CC(C)C)C(=O)N[C@@H](C)C(=O)N1C [DP-71] ([dA]T[NMeA][NMeV]F[Sar][NMeL]A[NMeI]D-Piperidide; lactam N-10)	5.4
CC(C)C[C@@H]1NC(=O)[C@H](Cc2ccccc2)N(C)C(=O)[C@@H](C(C)C)NC(=O)C[C@@H](C(=O)N2CCCCC2)NC(=O)[C@H](C(C)C)N(C)C(=O)[C@H](Cc2ccccc2)N(C)C(=O)[C@H](COC(C)(C)C)NC(=O)[C@H](CC(C)C)N(C)C(=O)CN(C)C(=O)[C@H]([C@@H](C)O)NC(=O)[C@H](CC(C)C)N(C)C1=O [DP-149] ([dV][NMeF]L[NMeL]T[Sar][NMeL]S(tBu)[NMeF][NMeV]D-Piperidide; lactam N-11)	17
CC[C@H](C)[C@@H]1NC(=O)[C@H](CC(C)C)N(C)C(=O)[C@H](Cc2ccccc2)N(C)C(=O)[C@H]([C@@H](C)O)NC(=O)[C@H](CC(C)C)N(C)C(=O)[C@H](CC(C)C)N(C)C(=O)[C@H](C)N(C)C(=O)C[C@@H](C(=O)N2CCCCC2)NC(=O)[C@H](CC(C)C)NC(=O)[C@H](Cc2ccccc2)N(C)C(=O)[C@H](C)N(C)C1=O [DP-154] ([NMeA][NMeL][NMeL]T[NMeF][NMeL]I[NMeA][NMeF]LD-Piperidide; lactam N-11)	9.3

Same assay, conditions: PAMPA; membrane permeation rate (Pe); 50 mM MOPSO buffer pH 6.5 with 5.0% glycocholic acid, 37° C., 18 hours; read-out: iPAMPA Pe

SMILES	Papp at 18 hours, 50 µM [×10⁻⁶ cm/s]
CC(C)C[C@@H]1NC(=O)[C@H](Cc2ccccc2)N(C)C(=O)[C@H](C)NC(=O)[C@H](C)N(C)C(=O)[C@H]([C@@H](C)O)NC(=O)[C@H](CC(C)C)N(C)C(=O)[C@H](C)N(C)C(=O)C[C@@H](C(=O)N2CCCCC2)NC(=O)[C@H](CC(C)C)N(C)C(=O)[C@H](Cc2ccccc2)N(C)C(=O)[C@H](CC(C)C)N(C)C1=O [DP-156] ([NMeA][NMeL]T[NMeA]A[NMeF]L[NMeL][NMeF][NMeL]D-Piperidide; lactam N-11)	24
CC(C)C[C@H]1C(=O)N(C)[C@@H](Cc2ccccc2)C(=O)N(C)[C@@H](Cc2ccccc2)C(=O)N[C@@H]([C@@H](C)O)C(=O)N(C)[C@@H](C)C(=O)N(C)[C@@H](CC(C)C)C(=O)N[C@H](C(=O)N2CCCCC2)CC(=O)N(C)[C@H](C)C(=O)N(C)[C@@H](CC(C)C)C(=O)N(C)[C@@H](CC(C)C)C(=O)N[C@@H](C)C(=O)N1C [DP-166] ([dNMeA][NMeL][NMeL]A[NMeL][NMeF][NMeF]T[NMeA][NMeL]D-Piperidide; lactam N-11)	55
CC[C@H](C)[C@@H]1NC(=O)[C@H](C)NC(=O)C[C@@H](C(=O)N(C)[C@@H](Cc2ccccc2)C(=O)N[C@@H](C)C(=O)N2CCCCC2)NC(=O)[C@H](Cc2ccccc2)N(C)C(=O)[C@H](CC(C)C)N(C)C(=O)[C@H](C)N(C)C(=O)[C@H]([C@@H](C)O)NC(=O)[C@H](Cc2ccccc2)N(C)C(=O)[C@H](CC(C)C)N(C)C(=O)[C@H](C)N(C)C(=O)[C@H](CC(C)C)N(C)C1=O [DP-178] (AI[NMeL][NMeA][NMeL][NMeF]T[NMeA][NMeL][NMeF]D[NMeF]A-Piperidide; lactam N-11)	1
